Source: patent US10654802B2, “Indoline derivatives and method for using and producing the same” (ARIZONA BOARD OF REGENTS ON BEHALF OF THE UNIVERSITY OF …, priority 2016, dated 2020)

Target: T1, Nox4 (Homo sapiens, UniProt Q9NPH5)
T1 construct: expressed in transfected cells
T1 sequence (Q9NPH5 1-578): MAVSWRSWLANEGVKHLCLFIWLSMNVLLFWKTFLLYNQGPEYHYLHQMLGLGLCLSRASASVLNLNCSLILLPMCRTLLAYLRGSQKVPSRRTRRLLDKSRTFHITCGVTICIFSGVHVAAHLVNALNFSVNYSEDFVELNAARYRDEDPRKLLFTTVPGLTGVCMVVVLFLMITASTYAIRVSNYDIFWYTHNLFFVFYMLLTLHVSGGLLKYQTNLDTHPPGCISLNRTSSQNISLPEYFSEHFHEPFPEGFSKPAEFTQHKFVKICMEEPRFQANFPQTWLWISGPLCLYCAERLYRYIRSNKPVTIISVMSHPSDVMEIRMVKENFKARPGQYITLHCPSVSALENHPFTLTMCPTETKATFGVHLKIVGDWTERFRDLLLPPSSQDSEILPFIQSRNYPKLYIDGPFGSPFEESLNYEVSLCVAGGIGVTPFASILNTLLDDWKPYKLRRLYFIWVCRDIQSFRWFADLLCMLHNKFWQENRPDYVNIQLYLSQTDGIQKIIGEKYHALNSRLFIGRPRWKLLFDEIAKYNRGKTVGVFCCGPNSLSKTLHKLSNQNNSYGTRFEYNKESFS
T1 sequence (P13498 1-195 partner): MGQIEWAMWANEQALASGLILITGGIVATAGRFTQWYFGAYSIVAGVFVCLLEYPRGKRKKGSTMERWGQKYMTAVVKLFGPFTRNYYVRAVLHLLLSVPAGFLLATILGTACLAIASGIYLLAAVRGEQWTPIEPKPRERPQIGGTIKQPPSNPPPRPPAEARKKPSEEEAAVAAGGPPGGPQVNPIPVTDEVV
Test: Inhibition of Nox4-dependent H2O2 production in HEK/Nox4 cells, Amplex Red assay
Type: cell-based
Settings: for remaining activity at 1 µM: 1 μM final concentration; for remaining activity at 1 µM / remaining activity at 5 µM / remaining activity at 10 µM: 1 h, HEK/Nox4 cells, DMSO vehicle = 1.000, n = 3-10, read-out: H2O2 production relative to vehicle control, Mean; for remaining activity at 5 µM: 5 μM final concentration; for remaining activity at 10 µM: 10 μM final concentration
Description: A high-throughput screening (HTS) assay was established for Nox4 inhibition, utilizing HEK293 cells that stably over-express Nox4 (HEK/Nox4 cells), which generate high levels of H2O2(Cheng G et al, Gene: 2001, p. 131-140). Over 30,000 compounds have been screened and medicinal chemistry efforts have led to the synthesis of numerous analogs and the identification of a chemically distinct series of selective Nox4 inhibitors. […] IC-50 was evaluated for UANox048 (FIG. 1B).
HEK cells stably transfected to overexpress Nox4 were treated with varying concentrations of test compounds, DPI (all-Nox inhibitor positive control), or DMSO (vehicle control) and incubated for 1 h (FIG. 1). (FIG. 1A) H2O2 presence was evaluated by Amplex Red assay. […] Values represent means±SEM; n=4. P values were calculated by student's two-tailed t test. *p<0.05, **p<0.01, *** p<0.001.

Structure (SMILES)	remaining activity at 1 µM	remaining activity at 5 µM	remaining activity at 10 µM	H2O2 generation by HEK/Nox4 cells (varying concentrations, Amplex Red, FIG. 1A)
CCN(CC)S(=O)(=O)Nc1ccc(N2CCc3ccccc32)cc1 [UANOX038, N—(N,N-diethylaminosulfonyl)-4-(indolin-1-yl)aniline]	92.5%	80%	63.5%	
CN(C)S(=O)(=O)NCCN1CCc2ccccc21 [UANOX003, N—(N,N-dimethylaminosulfonyl)-2-(indolin-1-yl)ethan-1-amine]	101%	103%	103%	
O=S(=O)(NCCN1CCc2ccccc21)c1ccc(OC(F)(F)F)cc1 [UANOX076, 4-trifluoromethoxy-N-(2-(indolin-1-yl)ethyl)benzenesulfonamide]	83.2%	72%	66.2%	
COc1ccc(S(=O)(=O)NCC(C)N2CCc3ccccc32)cc1 (stereo not shown) [UANOX034, N-(2-(indolin-1-yl)propyl)-4-methoxybenzenesulfonamide]	95.9%	80.3%	70.6%	dose-dependent decrease
c1ccc2c(c1)CCN2CCN1CCCCC1 [UANOX018, 1-(2-(piperidin-1-yl)ethyl)indoline]	110%	103%	100%	
O=S(=O)(NCCN1CCc2ccccc21)c1ccc(Oc2ccc(C(F)(F)F)cn2)cc1 [UANOX080, N-(2-(indolin-1-yl)ethyl)-4-((5-(trifluoromethyl)pyridin-2-yl)oxy)benzenesulfonamide]	85.5%	60.1%	49.1%	
CC(C)(CNS(=O)(=O)c1ccc(C(F)(F)F)cc1)N1CCc2ccccc21 [UANOX084, N-(2-(indolin-1-yl)-2-methylpropyl)-4-(trifluoromethyl)benzenesulfonamide]	90.3%	77.5%	67.5%	
CC(C)(CNS(=O)(=O)c1ccc(OC(F)(F)F)cc1)N1CCc2ccccc21 [UANOX090, N-(2-(indolin-1-yl)-2-methylpropyl)-4-(trifluoromethoxy)benzenesulfonamide]	104%	88.7%	74.5%	
O=S(=O)(NCCN1CCc2ccccc21)c1ccc(C(F)(F)F)cc1 [UANOX075, 4-trifluoromethyl-N-(2-(indolin-1-yl)ethyl)benzenesulfonamide]	82.3%	72.1%	67.7%	
CCN(CC)S(=O)(=O)NCC(C)(C)N1CCc2ccccc21 [UANOX083, N—(N,N-diethylaminosulfonyl)-2-(indolin-1-yl)-2-methylpropane-1-amine]	82.3%	73%	66.5%	
CC(CNS(=O)(=O)c1ccc(C#N)cc1)N1CCc2ccccc21 (stereo not shown) [UANOX073]	94.2%	75.9%	74.4%	
CCN(CC)S(=O)(=O)NCC(C)N1CCc2cc(-c3cccc(OC)c3)ccc21 (stereo not shown) [UANOX036, N-(2-(5-(3-methoxyphenyl)indolin-1-yl)propyl)-N,N-diethyl-1-sulfonamide]	102%	83.2%	74.7%	
CC(CNC(=O)c1csc(-c2ccc(C(F)(F)F)cc2)n1)N1CCc2ccccc21 (stereo not shown) [UANOX056, N-(2-(indolin-1-yl)propyl)-2-(4-(trifluoromethyl)phenyl)thiazole-4-carboxamide]	95.9%	88.4%	83.4%	

Further lines, results first:

remaining activity at 1 µM	remaining activity at 5 µM	remaining activity at 10 µM	H2O2 generation by HEK/Nox4 cells (varying concentrations, Amplex Red, FIG. 1A)	Structure (SMILES)
111%	107%	110%		O=C(CCN1CCN(c2ncccn2)CC1)N1CCc2ccccc21 [UANOX022, 1-(indolin-1-yl)-3-(4-(pyrimidin-2-yl)piperazin-1-yl)propan-1-one]
97.2%	79.3%	77.3%		CC(CNS(=O)(=O)N1CCN(C)CC1)N1CCc2ccccc21 (stereo not shown) [UANOX037]
111%	111%	99.7%		O=C(CCN1CCN(S(=O)(=O)N2CCCCC2)CC1)N1CCc2ccccc21 [UANOX031, 1-(indolin-1-yl)-3-(4-(piperidin-1-ylsulfonyl)piperazin-1-yl)propan-1-one]
101%	83.6%	70.1%		COc1ccc(S(=O)(=O)NCC(C)(C)N2CCc3ccccc32)cc1 [UANOX089, N-(2-(indolin-1-yl)-2-methylpropyl)-4-methoxybenzenesulfonamide]
107%	113%	112%		CCN(CC)S(=O)(=O)N1CCN(CC(=O)N2CCc3ccccc32)CC1 [UANOX025, N,N-diethyl-4-(2-(indolin-1-yl)-2-oxoethyl)piperazine-1-sulfonamide]
98.6%	106%	101%		CCN(CC)C(=O)NCCN1CCc2ccccc21 [UANOX002, 1,1-diethyl-3-(2-(indolin-1-yl)ethyl)urea]
86.3%	75.7%	72.4%		O=S(=O)(c1ccc(F)cc1)N1CCN(CCN2CCc3ccccc32)CC1 [UANOX064, 1-(2-(4-((4-fluorophenyl)sulfonyl)piperazin-1-yl)ethyl)indoline]
90.2%	71.9%	66.5%		CCN(CC)S(=O)(=O)N1CCN(CCN2CCc3ccccc32)CC1 [UANOX063, N,N-diethyl-4-(2-(indolin-1-yl)ethyl)piperazine-1-sulfonamide]
96.4%	111%	108%		O=C(CN1CCN(c2ncccn2)CC1)N1CCc2ccccc21 [UANOX0192, 1-(indolin-1-yl)-2-(4-(pyrimidin-2-yl)piperazin-1-yl)ethan-1-one]
90.6%	106%	101%		O=C(CN1CCN(S(=O)(=O)N2CCOCC2)CC1)N1CCc2ccccc21 [UANOX026, 1-(indolin-1-yl)-2-(4-(morpholinosulfonyl)piperazin-1-yl)ethan-1-one]
90.2%	87.6%	82.4%		COc1ccc(-c2nc(C(=O)NCC(C)N3CCc4ccccc43)cs2)cc1 (stereo not shown) [UANOX054, N-(2-(indolin-1-yl)propyl)-2-(4-(methoxy)phenyl)thiazole-4-carboxamide]
96%	95%	85.7%		O=S(=O)(NCCN1CCc2ccccc21)N1CCOCC1 [UANOX012, N-(2-(indolin-1-yl)ethyl)morpholine-4-sulfonamide]
74.2%	87.6%	79.1%		O=C(NCCN1CCc2ccccc21)N1CCCC1 [UANOX021, N-(2-(indolin-1-yl)ethyl)pyrrolidine-1-carboxamide]
101%	92.1%	88.1%		O=S(=O)(NCCN1CCc2ccccc21)N1CCCCC1 [UANOX013, N-(2-(indolin-1-yl)ethyl)piperidine-1-sulfonamide]
